Source: ChEMBL document CHEMBL4507268 (2021)

Experiments:
[1] = test system: Tyrosine-protein kinase ABL1 (Homo sapiens), P00519 [F317I]; details: Compound concentration 1000.0 nM
[2] = molecular target: Atypical kinase COQ8A, mitochondrial (Homo sapiens) (UniProt Q8NI60); details: Compound concentration 1000.0 nM
[3] = molecular target: RAC-beta serine/threonine-protein kinase (Homo sapiens) (UniProt P31751); details: Compound concentration 1000.0 nM
[4] = molecular target: Protein-tyrosine kinase 6 (Homo sapiens) (UniProt Q13882); details: Compound concentration 1000.0 nM
[5] = molecular target: Dual specificity protein kinase CLK2 (Homo sapiens) (UniProt P49760); details: Compound concentration 1000.0 nM
[6] = molecular target: Epidermal growth factor receptor (Homo sapiens) (UniProt P00533); details: Compound concentration 1000.0 nM
[7] = molecular target: T1, Ephrin type-B receptor 3 (Homo sapiens) (UniProt P54753); details: Compound concentration 1000.0 nM
T1 sequence (whole entry): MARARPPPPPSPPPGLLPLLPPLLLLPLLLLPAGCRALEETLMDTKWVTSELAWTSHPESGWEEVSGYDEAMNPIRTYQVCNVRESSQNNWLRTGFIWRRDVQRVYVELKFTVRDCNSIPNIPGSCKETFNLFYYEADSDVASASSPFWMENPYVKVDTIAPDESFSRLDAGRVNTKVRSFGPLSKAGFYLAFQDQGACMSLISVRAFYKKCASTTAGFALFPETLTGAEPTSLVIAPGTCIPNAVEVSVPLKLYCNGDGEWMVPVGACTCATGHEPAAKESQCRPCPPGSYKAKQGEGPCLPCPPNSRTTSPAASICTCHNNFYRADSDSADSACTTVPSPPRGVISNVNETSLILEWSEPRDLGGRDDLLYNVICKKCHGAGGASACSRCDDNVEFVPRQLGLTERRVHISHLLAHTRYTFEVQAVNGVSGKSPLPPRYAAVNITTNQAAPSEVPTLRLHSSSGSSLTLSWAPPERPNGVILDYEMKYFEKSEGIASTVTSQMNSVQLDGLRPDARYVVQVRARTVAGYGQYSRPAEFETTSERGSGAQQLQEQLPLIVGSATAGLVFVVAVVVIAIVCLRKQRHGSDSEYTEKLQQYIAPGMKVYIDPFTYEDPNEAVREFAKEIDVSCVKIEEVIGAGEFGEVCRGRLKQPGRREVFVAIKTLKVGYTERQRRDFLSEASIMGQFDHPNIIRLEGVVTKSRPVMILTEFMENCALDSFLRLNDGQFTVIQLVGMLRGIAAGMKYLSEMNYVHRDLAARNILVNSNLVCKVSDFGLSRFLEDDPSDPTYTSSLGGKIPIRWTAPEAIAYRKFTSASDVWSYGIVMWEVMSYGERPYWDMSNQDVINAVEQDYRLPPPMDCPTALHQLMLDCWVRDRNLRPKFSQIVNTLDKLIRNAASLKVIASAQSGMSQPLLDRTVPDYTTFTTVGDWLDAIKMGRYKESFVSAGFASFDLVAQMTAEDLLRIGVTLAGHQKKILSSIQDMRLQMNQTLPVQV

[8] = molecular target: Fibroblast growth factor receptor 4 (Homo sapiens) (UniProt P22455); details: Compound concentration 1000.0 nM
[9] = molecular target: Leucine-rich repeat serine/threonine-protein kinase 2 (Homo sapiens) (UniProt Q5S007); details: Compound concentration 1000.0 nM
Sequence of Leucine-rich repeat serine/threonine-protein kinase 2 (Homo sapiens) (Q5S007 whole entry): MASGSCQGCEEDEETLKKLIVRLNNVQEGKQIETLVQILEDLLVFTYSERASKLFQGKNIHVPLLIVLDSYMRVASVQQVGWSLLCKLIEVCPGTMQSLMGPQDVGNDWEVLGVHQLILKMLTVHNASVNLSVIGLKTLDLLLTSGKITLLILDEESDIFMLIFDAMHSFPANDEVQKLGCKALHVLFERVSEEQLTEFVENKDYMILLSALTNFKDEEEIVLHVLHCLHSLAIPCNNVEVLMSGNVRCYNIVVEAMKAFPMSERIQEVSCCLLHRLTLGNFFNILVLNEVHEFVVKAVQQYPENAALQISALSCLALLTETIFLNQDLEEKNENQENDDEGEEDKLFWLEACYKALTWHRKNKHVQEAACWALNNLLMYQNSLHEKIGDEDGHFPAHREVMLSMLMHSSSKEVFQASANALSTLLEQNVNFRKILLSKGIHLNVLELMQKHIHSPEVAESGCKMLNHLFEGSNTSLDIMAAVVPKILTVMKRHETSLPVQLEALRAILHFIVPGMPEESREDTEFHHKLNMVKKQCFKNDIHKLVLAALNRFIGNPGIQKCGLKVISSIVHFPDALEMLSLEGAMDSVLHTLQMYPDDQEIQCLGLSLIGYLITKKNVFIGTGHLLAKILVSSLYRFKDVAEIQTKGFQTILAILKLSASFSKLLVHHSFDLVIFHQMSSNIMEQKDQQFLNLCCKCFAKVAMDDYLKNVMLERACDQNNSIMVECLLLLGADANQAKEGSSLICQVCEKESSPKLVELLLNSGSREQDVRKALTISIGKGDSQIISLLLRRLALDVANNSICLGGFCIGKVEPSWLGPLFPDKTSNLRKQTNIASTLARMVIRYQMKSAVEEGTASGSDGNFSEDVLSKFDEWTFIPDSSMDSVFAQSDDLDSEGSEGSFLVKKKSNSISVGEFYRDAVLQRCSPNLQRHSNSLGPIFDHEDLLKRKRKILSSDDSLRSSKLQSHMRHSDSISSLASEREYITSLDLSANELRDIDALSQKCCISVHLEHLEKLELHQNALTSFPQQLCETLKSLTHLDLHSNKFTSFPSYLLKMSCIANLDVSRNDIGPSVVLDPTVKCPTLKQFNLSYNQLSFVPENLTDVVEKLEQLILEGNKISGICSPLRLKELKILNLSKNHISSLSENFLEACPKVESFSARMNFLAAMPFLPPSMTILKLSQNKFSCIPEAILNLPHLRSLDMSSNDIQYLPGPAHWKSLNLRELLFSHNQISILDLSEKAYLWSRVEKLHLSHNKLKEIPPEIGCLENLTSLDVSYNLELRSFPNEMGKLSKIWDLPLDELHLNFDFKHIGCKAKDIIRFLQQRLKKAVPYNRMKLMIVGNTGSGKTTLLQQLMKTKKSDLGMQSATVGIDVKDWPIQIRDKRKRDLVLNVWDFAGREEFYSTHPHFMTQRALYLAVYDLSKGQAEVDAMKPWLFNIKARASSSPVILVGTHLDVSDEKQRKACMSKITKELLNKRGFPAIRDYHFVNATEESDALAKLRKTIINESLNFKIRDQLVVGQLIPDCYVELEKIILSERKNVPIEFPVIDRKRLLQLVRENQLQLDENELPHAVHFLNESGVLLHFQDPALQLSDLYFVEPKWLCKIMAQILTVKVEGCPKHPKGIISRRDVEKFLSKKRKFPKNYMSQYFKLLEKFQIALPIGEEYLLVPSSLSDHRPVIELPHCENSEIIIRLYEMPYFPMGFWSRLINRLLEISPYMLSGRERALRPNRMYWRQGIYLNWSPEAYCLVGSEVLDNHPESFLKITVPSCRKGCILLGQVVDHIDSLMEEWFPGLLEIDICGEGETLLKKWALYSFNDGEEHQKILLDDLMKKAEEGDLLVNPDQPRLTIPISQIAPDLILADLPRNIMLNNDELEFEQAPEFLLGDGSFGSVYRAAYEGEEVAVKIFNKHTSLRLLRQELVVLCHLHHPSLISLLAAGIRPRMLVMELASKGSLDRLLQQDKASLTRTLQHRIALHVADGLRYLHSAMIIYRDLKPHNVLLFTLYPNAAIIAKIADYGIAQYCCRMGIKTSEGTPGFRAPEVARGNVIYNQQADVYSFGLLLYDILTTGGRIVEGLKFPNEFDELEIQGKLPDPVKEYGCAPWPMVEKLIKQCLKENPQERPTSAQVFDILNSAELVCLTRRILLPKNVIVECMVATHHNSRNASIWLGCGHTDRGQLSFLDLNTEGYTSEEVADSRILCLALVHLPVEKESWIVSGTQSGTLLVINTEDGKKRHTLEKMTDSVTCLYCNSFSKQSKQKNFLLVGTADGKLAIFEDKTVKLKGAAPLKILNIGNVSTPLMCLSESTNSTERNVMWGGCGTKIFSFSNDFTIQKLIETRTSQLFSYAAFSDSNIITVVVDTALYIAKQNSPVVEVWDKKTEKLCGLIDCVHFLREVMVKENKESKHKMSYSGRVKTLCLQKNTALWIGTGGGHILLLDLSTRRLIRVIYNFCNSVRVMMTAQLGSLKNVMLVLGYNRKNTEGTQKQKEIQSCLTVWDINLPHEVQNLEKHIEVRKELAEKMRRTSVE

[10] = molecular target: Serine/threonine-protein kinase MARK1 (Homo sapiens) (UniProt Q9P0L2); details: Compound concentration 1000.0 nM
Sequence of Serine/threonine-protein kinase MARK1 (Homo sapiens) (Q9P0L2 whole entry, looked up): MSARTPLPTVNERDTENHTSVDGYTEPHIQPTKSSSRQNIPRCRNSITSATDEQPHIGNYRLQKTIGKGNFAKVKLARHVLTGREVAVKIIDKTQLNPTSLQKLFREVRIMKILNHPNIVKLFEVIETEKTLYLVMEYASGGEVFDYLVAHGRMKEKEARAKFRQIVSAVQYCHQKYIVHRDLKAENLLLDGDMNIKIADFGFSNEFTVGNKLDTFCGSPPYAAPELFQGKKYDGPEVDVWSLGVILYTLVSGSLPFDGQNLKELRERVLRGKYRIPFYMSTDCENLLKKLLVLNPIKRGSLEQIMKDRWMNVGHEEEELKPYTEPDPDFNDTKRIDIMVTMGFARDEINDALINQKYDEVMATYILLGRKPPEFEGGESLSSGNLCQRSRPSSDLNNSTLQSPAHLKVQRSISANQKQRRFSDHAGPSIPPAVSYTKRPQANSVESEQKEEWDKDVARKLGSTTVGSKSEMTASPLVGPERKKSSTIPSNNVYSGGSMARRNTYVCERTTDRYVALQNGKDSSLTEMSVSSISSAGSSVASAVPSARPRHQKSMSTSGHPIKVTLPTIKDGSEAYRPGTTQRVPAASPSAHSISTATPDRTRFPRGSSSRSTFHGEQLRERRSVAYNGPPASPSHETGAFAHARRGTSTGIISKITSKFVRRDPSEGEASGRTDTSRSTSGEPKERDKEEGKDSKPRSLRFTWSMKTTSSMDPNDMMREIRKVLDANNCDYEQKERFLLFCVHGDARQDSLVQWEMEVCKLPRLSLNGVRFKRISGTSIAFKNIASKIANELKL

[11] = molecular target: Mitogen-activated protein kinase 11 (Homo sapiens) (UniProt Q15759); details: Compound concentration 1000.0 nM
Sequence of Mitogen-activated protein kinase 11 (Homo sapiens) (Q15759 whole entry): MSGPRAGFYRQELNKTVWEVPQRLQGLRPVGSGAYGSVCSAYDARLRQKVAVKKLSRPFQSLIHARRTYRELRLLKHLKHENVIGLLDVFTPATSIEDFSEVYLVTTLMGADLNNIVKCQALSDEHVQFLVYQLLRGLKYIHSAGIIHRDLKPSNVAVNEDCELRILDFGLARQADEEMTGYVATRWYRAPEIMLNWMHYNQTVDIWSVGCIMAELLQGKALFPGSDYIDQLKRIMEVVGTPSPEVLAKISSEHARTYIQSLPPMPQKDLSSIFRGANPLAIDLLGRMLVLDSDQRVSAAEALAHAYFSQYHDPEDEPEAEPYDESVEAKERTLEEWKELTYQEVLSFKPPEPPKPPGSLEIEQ

[12] = molecular target: Serine/threonine-protein kinase PAK 2 (Homo sapiens) (UniProt Q13177); details: Compound concentration 1000.0 nM
Sequence of Serine/threonine-protein kinase PAK 2 (Homo sapiens) (Q13177 whole entry): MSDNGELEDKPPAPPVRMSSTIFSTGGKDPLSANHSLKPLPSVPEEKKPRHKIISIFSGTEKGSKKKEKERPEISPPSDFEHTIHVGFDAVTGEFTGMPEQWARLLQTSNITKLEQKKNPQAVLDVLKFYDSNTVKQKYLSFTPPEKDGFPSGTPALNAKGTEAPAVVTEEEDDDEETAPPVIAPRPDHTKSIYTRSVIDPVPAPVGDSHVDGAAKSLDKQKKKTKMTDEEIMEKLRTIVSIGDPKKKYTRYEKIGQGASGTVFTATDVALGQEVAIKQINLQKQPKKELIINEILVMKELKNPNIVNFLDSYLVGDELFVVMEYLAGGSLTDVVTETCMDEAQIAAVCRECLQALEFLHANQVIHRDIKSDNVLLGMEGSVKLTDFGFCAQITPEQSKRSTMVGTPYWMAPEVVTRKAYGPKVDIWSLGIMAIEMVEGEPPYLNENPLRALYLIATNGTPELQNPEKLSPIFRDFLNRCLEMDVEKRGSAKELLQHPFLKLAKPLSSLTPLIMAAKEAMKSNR

[13] = molecular target: Cyclin-dependent kinase 2 homolog (Plasmodium falciparum (isolate 3D7)) (UniProt P61075); details: Compound concentration 1000.0 nM
Sequence of Cyclin-dependent kinase 2 homolog (Plasmodium falciparum (isolate 3D7)) (P61075 whole entry, canonical isoform): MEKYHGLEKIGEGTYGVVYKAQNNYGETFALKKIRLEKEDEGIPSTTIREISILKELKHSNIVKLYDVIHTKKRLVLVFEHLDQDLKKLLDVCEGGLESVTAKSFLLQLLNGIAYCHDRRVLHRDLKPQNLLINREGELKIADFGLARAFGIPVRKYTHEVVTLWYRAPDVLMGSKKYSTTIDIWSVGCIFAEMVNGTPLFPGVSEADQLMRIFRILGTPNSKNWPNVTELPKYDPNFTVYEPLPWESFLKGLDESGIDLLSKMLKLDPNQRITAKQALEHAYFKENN

[14] = molecular target: Phosphatidylinositol 4,5-bisphosphate 3-kinase catalytic subunit beta isoform (Homo sapiens) (UniProt P42338); details: Compound concentration 1000.0 nM
[15] = molecular target: Phosphatidylinositol 4-phosphate 5-kinase type-1 alpha (Homo sapiens) (UniProt Q99755); details: Compound concentration 1000.0 nM
Sequence of Phosphatidylinositol 4-phosphate 5-kinase type-1 alpha (Homo sapiens) (Q99755 whole entry): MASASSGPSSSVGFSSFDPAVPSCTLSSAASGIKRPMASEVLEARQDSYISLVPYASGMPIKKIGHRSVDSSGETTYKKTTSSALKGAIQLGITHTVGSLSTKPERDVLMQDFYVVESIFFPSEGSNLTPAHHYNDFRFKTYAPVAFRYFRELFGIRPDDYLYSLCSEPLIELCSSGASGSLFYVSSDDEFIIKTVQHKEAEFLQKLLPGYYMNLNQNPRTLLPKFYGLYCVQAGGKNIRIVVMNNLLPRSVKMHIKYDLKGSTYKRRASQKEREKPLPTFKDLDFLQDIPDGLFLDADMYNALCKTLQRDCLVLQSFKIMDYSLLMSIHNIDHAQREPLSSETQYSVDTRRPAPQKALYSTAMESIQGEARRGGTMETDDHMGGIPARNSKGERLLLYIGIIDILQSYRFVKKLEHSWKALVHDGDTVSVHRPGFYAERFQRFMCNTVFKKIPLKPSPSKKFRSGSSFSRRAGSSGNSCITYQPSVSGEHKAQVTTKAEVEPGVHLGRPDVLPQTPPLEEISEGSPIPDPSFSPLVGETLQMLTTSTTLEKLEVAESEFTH

[16] = molecular target: Serine/threonine-protein kinase PLK2 (Homo sapiens) (UniProt Q9NYY3); details: Compound concentration 1000.0 nM
[17] = molecular target: T2, cGMP-dependent protein kinase 1 (Homo sapiens) (UniProt Q13976); details: Compound concentration 1000.0 nM
T2 sequence (whole entry): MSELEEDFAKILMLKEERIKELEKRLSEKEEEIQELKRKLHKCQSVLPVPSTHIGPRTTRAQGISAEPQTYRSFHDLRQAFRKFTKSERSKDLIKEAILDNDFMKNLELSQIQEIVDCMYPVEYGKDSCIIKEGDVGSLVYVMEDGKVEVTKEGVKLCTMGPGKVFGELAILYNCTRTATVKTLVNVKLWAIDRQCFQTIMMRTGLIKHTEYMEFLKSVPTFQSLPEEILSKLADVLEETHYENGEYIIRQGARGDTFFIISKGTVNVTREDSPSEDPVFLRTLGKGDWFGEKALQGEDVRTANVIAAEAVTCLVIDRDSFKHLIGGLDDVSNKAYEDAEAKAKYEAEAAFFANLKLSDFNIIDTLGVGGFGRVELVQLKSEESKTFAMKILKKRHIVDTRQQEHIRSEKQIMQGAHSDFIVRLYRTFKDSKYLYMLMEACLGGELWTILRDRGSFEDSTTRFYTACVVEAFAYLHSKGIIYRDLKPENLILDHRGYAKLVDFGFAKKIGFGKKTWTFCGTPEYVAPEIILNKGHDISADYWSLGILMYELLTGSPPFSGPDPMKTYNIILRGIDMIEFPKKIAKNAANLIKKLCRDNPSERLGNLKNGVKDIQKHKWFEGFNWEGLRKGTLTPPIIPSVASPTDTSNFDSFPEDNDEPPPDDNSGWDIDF

[18] = molecular target: RAF proto-oncogene serine/threonine-protein kinase (Homo sapiens) (UniProt P04049); details: Compound concentration 1000.0 nM
[19] = test system: Proto-oncogene tyrosine-protein kinase receptor Ret (Homo sapiens), P07949 [V804M]; details: Compound concentration 1000.0 nM
[20] = molecular target: Wee1-like protein kinase (Homo sapiens) (UniProt P30291); details: Compound concentration 1000.0 nM
[21] = molecular target: Muscarinic acetylcholine receptor M3 (Homo sapiens) (UniProt P20309); details: Compound concentration 10.0 uM
[22] = molecular target: Muscarinic acetylcholine receptor M5 (Homo sapiens) (UniProt P08912); details: Compound concentration 10.0 uM

CN1CCN(c2cnc3c(C4CCN(C(=O)c5ccc(OC(F)(F)F)cc5N)CC4)ncnc3c2)CC1 [BAY-885]
inactive: residual activity [1] 99% | residual activity [2] 100% | residual activity [3] 100% | residual activity [4] 100% | residual activity [5] 100% | residual activity [6] 99% | residual activity [7] 100% | residual activity [8] 100% | residual activity [9] 100% | residual activity [10] 100% | residual activity [11] 98% | residual activity [12] 100% | residual activity [13] 100% | residual activity [14] 100% | residual activity [15] 64% | residual activity [16] 93% | residual activity [17] 83% | residual activity [18] 75% | residual activity [19] 100% | residual activity [20] 96% | inhibition [21] 27.1% | inhibition [22] 2.02%

Cc1nc(C2CCN(C(=O)c3ccc(OC(F)(F)F)cc3N)CC2)c2ncc(N3CCN(C)CC3)cc2n1 [BAY-693]
inactive: residual activity [1] 76% | residual activity [2] 100% | residual activity [3] 100% | residual activity [4] 100% | residual activity [5] 100% | residual activity [6] 86% | residual activity [7] 100% | residual activity [8] 100% | residual activity [9] 89% | residual activity [10] 100% | residual activity [11] 100% | residual activity [12] 64% | residual activity [13] 100% | residual activity [14] 94% | residual activity [15] 63% | residual activity [16] 74% | residual activity [17] 100% | residual activity [18] 77% | residual activity [19] 100% | residual activity [20] 94% | inhibition [21] 18.6% | inhibition [22] -3.81%
